Measured values as given in patent publication US10344054B2, “Angiotensin-1-receptor antagonists” (Ferring B.V., priority 2016, dated 2019).
pIC50: −log10 of the molar value. Residues, ends and D or L forms follow the SMILES beside them.

Tests used:
hAT1R [1] = biological target: T1, hAT1R (Homo sapiens, UniProt P30556); experiment: FLIPR calcium flux assay, Part II: antagonist activity against Angiotensin II; type: cell-based; conditions: for Emax: read-out: hAT1R Antagonist Efficacy Antag (%) Ave; for pIC50: read-out: hAT1R Antagonist IC50 Ave; for hAT1R Antagonist Efficacy Antag (%) Ave: Angiotensin II 10 nM final concentration
T1 sequence (P30556 1-359): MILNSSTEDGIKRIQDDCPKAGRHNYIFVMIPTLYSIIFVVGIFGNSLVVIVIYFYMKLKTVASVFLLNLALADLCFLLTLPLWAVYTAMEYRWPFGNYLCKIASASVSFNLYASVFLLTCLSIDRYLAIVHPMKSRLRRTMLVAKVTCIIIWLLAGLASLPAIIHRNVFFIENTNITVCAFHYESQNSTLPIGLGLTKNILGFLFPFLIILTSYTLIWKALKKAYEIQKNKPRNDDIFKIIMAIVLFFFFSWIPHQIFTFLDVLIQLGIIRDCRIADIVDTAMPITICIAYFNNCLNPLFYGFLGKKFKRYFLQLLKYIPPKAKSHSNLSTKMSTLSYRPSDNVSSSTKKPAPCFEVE
Method: (§1) AT1 receptor (AT1R) agonists increase intracellular flux of calcium ions. AT1R antagonists can reduce the agonist effect. […] Compounds were first tested for agonism (Part I) followed by addition of the AT1R agonist angiotensin II to test for antagonist activity (Part II). This assay used a stable hAT1R expressing cell line (ChanTest hAT1R; ChanTest Corp A628). Intracellular flux of calcium in response to agonist was measured through real-time measurement of fluorescence induced through the interaction of Ca2+ (released from intracellular stores) and calcium-sensitive dye. In Part I, cells were exposed to varying concentrations of test compounds and immediately measured for agonist activity (EC50 and Efficacy).
(§2) ChanTest hAT1R stable cells were maintained in Ham's F12 containing 10% (v/v) heat inactivated fetal bovine serum (FBS-HI), 4 mM Glutamax, 1% NEAA, 50 ng/mL plasmocin, 400 μg/mL G418 at 37° C. under 5% CO2 in a humidified atmosphere.
(§3) For FLIPR assay, ChanTest hAT1R cells were trypsinized with 6 ml of Trypsin EDTA solution and harvested in phenol-red free DMEM containing 10% FBS-HI, 4 mM Glutamax and counted, spun down and resuspended in the same medium. The cell suspension was added to the wells of 384-well black PDL clear bottom plates at 2.5×10^4 cells/well, 20 μl/well.
(§4) Preparation of Loading Buffer:
(§5) • Loading Buffer: 1 vial of Calcium 5 Bulk Assay reagent was dissolved in 100 ml of 1× HBSS-20 mM Hepes buffer. • Probenecid was resuspended at 1 M in 1 M NaOH. Once the probenecid had gone into solution, an equal volume of H2O was added to make a solution of 500 mM followed by a 1:100 dilution in the Loading Buffer for a working concentration of 5 mM. The pH was adjusted to 7.4 using 1 M NaOH. Loading the Cells with Loading Buffer • Cell plates were removed from the incubator and 25 μl of Loading Buffer containing probenecid (5 mM) added to each well. • Plates were incubated for 1 hour at 37° C. under 5% CO2 in a humidified atmosphere. […] The remaining steps of the assay were carried forward by FLIPR Tetra. A baseline reading was taken at 1-second (s) intervals for 10 s followed by the addition of 5 μl of 10× compounds. The compound-induced fluorescence signal was then measured for 3 minutes with readings taken at 1-s intervals. • The cell plate was removed from the FLIPR and set aside for an additional 17 minutes. • The cell plate was then transferred back to the FLIPR Tetra, along with the 384 well Angiotensin II agonist dilution plate. A baseline reading was taken at 1-second (s) intervals for 10 seconds, followed by the addition of 5.5 μl of 10× Angiotensin II agonist. The agonist-induced fluorescence signal was then measured for 3 minutes with readings taken at 1-s intervals. • Overall, each well in the FLIPR assay was composed of the following components in a total volume of 55.5 μl:
(§6) Time-course results from the FLIPR Calcium 5 assay were expressed as relative fluorescence light units (RFU). The maximum minus minimum values (Max−Min) were used to quantify the strength of the signal. Mean RFU were calculated from replicate values and plotted on the y-axis versus compound concentration on a logarithmic scale on the x-axis, and a single-binding site, four parameter concentration response model: (MIN+((MAX−MIN)/(1+((EC50/x)^Hill)))), was used to perform non-linear regression analysis, generating concentration response curves. Reported parameters included agonist potency EC50 (the concentration causing half-maximal agonist response), antagonist potency IC50 (the concentration causing half-maximal inhibition of the agonist response for antagonist compounds) and efficacy (% MPE: percent of the maximal possible effect).

hAT1R [2] = biological target: T1, hAT1R; experiment: FLIPR calcium flux assay, Part I: agonist activity; type: cell-based; conditions: ChanTest hAT1R stable cells; % MPE, percent of the maximal possible effect; read-out: hAT1R Agonist Efficacy Agonist (%) Ave
Method: as §1, §2, §3, §4, §5, §6

SMILES | Emax (hAT1R [1]) [%] | pIC50 (hAT1R [1]) | Emax (hAT1R [2]) [%]
CNCC(=O)N[C@@H](CCCNC(=N)N)C(=O)N[C@H](C(=O)N[C@@H](Cc1ccc(O)cc1)C(=O)N[C@H](C(=O)N[C@@H](Cc1c[nH]cn1)C(=O)N1CCC[C@H]1C(=O)N[C@H](Cc1cccc2ccccc12)C(=O)O)C(C)C)C(C)C [Compound 1, Sar-Arg-Val-Tyr-Val-His-Pro-(D-1Nal)-OH] (HELM PEPTIDE1{[Sar].R.V.Y.V.H.P.[O=C(O)[C@@H](Cc1cccc2ccccc12)N[*:1]]}$$$$V2.0) | 99 | 7.97 | 5
CNCC(=O)N[C@@H](CCCNC(=N)N)C(=O)N[C@H](C(=O)N[C@@H](Cc1ccc(O)cc1)C(=O)N[C@@H](CCCCN)C(=O)N[C@@H](Cc1c[nH]cn1)C(=O)N1CCC[C@H]1C(=O)N[C@H](Cc1cccc2ccccc12)C(=O)O)C(C)C [Compound 2, Sar-Arg-Val-Tyr-Lys-His-Pro-(D-1Nal)-OH] (HELM PEPTIDE1{[Sar].R.V.Y.K.H.P.[O=C(O)[C@@H](Cc1cccc2ccccc12)N[*:1]]}$$$$V2.0) | 100 | 7.78 | 1
CNCC(=O)N[C@@H](CCCNC(=N)N)C(=O)N[C@H](C(=O)N[C@@H](Cc1ccc(O)cc1)C(=O)N[C@H](C(=O)N[C@@H](Cc1c[nH]cn1)C(=O)N1CCC[C@H]1C(=O)N[C@H](Cc1ccccc1C(F)(F)F)C(=O)O)C(C)C)C(C)C [Compound 3, Sar-Arg-Val-Tyr-Val-His-Pro-(D-Phe(2-CF3))—OH] (HELM PEPTIDE1{[Sar].R.V.Y.V.H.P.[O=C(O)[C@@H](Cc1ccccc1C(F)(F)F)N[*:1]]}$$$$V2.0) | 99 | 7.63 | 5
CNCC(=O)N[C@@H](CCCNC(=N)N)C(=O)N[C@H](C(=O)N[C@@H](Cc1ccc(O)cc1)C(=O)N[C@H](C(=O)N[C@@H](Cc1c[nH]cn1)C(=O)N1CCC[C@H]1C(=O)N[C@H](Cc1ccccc1Cl)C(=O)O)C(C)C)C(C)C [Compound 4, Sar-Arg-Val-Tyr-Val-His-Pro-(D-Phe(2-Cl))—OH] (HELM PEPTIDE1{[Sar].R.V.Y.V.H.P.[O=C(O)[C@@H](Cc1ccccc1Cl)N[*:1]]}$$$$V2.0) | 99 | 7.97 | 6
CNCC(=O)N[C@@H](CCCNC(=N)N)C(=O)N[C@H](C(=O)N[C@@H](Cc1ccc(O)cc1)C(=O)N[C@H](C(=O)N[C@@H](Cc1c[nH]cn1)C(=O)N1CCC[C@H]1C(=O)N[C@H](Cc1ccccc1C#N)C(=O)O)C(C)C)C(C)C [Compound 5, Sar-Arg-Val-Tyr-Val-His-Pro-(D-Phe(2-CN))—OH] (HELM PEPTIDE1{[Sar].R.V.Y.V.H.P.[N#Cc1ccccc1C[C@@H](N[*:1])C(=O)O]}$$$$V2.0) | 100 | 7.22 | 5
CNCC(=O)N[C@@H](CCCNC(=N)N)C(=O)N[C@H](C(=O)N[C@@H](Cc1ccc(O)cc1)C(=O)N[C@H](C(=O)N[C@@H](Cc1c[nH]cn1)C(=O)N1CCC[C@H]1C(=O)N[C@H](Cc1ccccc1-c1ccccc1)C(=O)O)C(C)C)C(C)C [Compound 6, Sar-Arg-Val-Tyr-Val-His-Pro-(D-Phe(2-Ph))—OH] (HELM PEPTIDE1{[Sar].R.V.Y.V.H.P.[O=C(O)[C@@H](Cc1ccccc1-c1ccccc1)N[*:1]]}$$$$V2.0) | 99 | 7.78 | 10
CNCC(=O)N[C@@H](CCCNC(=N)N)C(=O)N[C@H](C(=O)N[C@@H](Cc1ccc(O)cc1)C(=O)N[C@H](C(=O)N[C@@H](Cc1c[nH]cn1)C(=O)N1CCC[C@H]1C(=O)N[C@H](Cc1ccc(Cl)cc1Cl)C(=O)O)C(C)C)C(C)C [Compound 7, Sar-Arg-Val-Tyr-Val-His-Pro-(D-Phe(2,4-diCl))—OH] (HELM PEPTIDE1{[Sar].R.V.Y.V.H.P.[O=C(O)[C@@H](Cc1ccc(Cl)cc1Cl)N[*:1]]}$$$$V2.0) | 99 | 8.19 | 12
CNCC(=O)N[C@@H](CCCNC(=N)N)C(=O)N[C@H](C(=O)N[C@@H](Cc1ccc(O)cc1)C(=O)N[C@H](C(=O)N[C@@H](Cc1c[nH]cn1)C(=O)N1CCC[C@H]1C(=O)N[C@H](Cc1c(C)cccc1C)C(=O)O)C(C)C)C(C)C [Compound 8, Sar-Arg-Val-Tyr-Val-His-Pro-(D-Phe(2,6-diMe))—OH] (HELM PEPTIDE1{[Sar].R.V.Y.V.H.P.[Cc1cccc(C)c1C[C@@H](N[*:1])C(=O)O]}$$$$V2.0) | 101 | 8.07 | 3
CNCC(=O)N[C@@H](CCCNC(=N)N)C(=O)N[C@H](C(=O)N[C@@H](Cc1ccc(O)cc1)C(=O)N[C@@H](Cc1ccc(N)cc1)C(=O)N[C@@H](Cc1c[nH]cn1)C(=O)N1CCC[C@H]1C(=O)N[C@H](Cc1cccc2ccccc12)C(=O)O)C(C)C [Compound 13, Sar-Arg-Val-Tyr-Aph-His-Pro-(D-1Nal)-OH] (HELM PEPTIDE1{[Sar].R.V.Y.[Nc1ccc(C[C@H](N[*:1])C(=O)[*:2])cc1].H.P.[O=C(O)[C@@H](Cc1cccc2ccccc12)N[*:1]]}$$$$V2.0) | 100 | 8.49 | 7

Further lines, results first:

Emax (hAT1R [1]) [%] | pIC50 (hAT1R [1]) | Emax (hAT1R [2]) [%] | SMILES
99 | 7.86 | 4 | CNCC(=O)N[C@@H](CCCNC(=N)N)C(=O)N[C@H](C(=O)N[C@@H](Cc1ccc(O)cc1)C(=O)N[C@H](C(=O)N[C@@H](Cc1c[nH]cn1)C(=O)N1CCC[C@H]1C(=O)N[C@H](Cc1ccccc1C)C(=O)O)C(C)C)C(C)C [Compound 9, Sar-Arg-Val-Tyr-Val-His-Pro-(D-Phe(2-Me))—OH] (HELM PEPTIDE1{[Sar].R.V.Y.V.H.P.[Cc1ccccc1C[C@@H](N[*:1])C(=O)O]}$$$$V2.0)
99 | 8.02 | 5 | CNCC(=O)N[C@@H](CCCNC(=N)N)C(=O)N[C@H](C(=O)N[C@@H](Cc1ccc(O)cc1)C(=O)N[C@H](C(=O)N[C@@H](Cc1c[nH]cn1)C(=O)N1CCC[C@H]1C(=O)N[C@H](Cc1csc2ccccc12)C(=O)O)C(C)C)C(C)C [Compound 10, Sar-Arg-Val-Tyr-Val-His-Pro-(D-(3-benzothienyl)alanine)-OH] (HELM PEPTIDE1{[Sar].R.V.Y.V.H.P.[O=C(O)[C@@H](Cc1csc2ccccc12)N[*:1]]}$$$$V2.0)
99 | 8.06 | 4 | CNCC(=O)N[C@@H](CCCNC(=N)N)C(=O)N[C@H](C(=O)N[C@@H](Cc1ccc(O)cc1)C(=O)N[C@H](C(=O)N[C@@H](Cc1c[nH]cn1)C(=O)N1CCC[C@H]1C(=O)N[C@H](Cc1ccccc1Br)C(=O)O)C(C)C)C(C)C [Compound 11, Sar-Arg-Val-Tyr-Val-His-Pro-(D-Phe(2-Br))—OH] (HELM PEPTIDE1{[Sar].R.V.Y.V.H.P.[O=C(O)[C@@H](Cc1ccccc1Br)N[*:1]]}$$$$V2.0)
100 | 8.47 | 5 | CNCC(=O)N[C@@H](CCCNC(=N)N)C(=O)N[C@H](C(=O)N[C@@H](Cc1ccc(O)cc1)C(=O)N[C@@H](Cc1ccc(O)cc1)C(=O)N[C@@H](Cc1c[nH]cn1)C(=O)N1CCC[C@H]1C(=O)N[C@H](Cc1cccc2ccccc12)C(=O)O)C(C)C [Compound 12, Sar-Arg-Val-Tyr-Tyr-His-Pro-(D-1Nal)-OH]
